Data as given in US20220387358A1, “CERAMIDE ANALOG SACLAC MODULATES SPHINGOLIPID LEVELS AND MCL-1 SPLICING TO INDUCE APOPTOSIS IN ACUTE MYELOID LEUKEMIA” (University of Virginia Patent Foundation, priority 2019, published 2022).

Experiments:
OCI-AML2 cells = assay: Western blot of SF3B1, Mcl-1S and Mcl-1L protein expression; format: cell-based, human
Description: Cells were plated at 2.5×10^5 cells per ml in 6-well plates and treated with drug, vehicle or siRNA at the indicated doses and time points. Cells were harvested, washed with PBS and lysed prior to preparation of protein extracts for western blotting.
More particularly, cells were lysed with RIPA buffer (#R0278, Sigma, St. Louis, Mo., United States of America) containing phosphatase inhibitor cocktails 2 and 3 (Sigma #P5726, #P0044) and protease inhibitor cocktail (#P8340, Sigma, St. Louis, Mo., United States of America). Protein was quantified using a bicinchoninic acid (BCA) protein assay kit (#23225, Pierce, Waltham, Mass., United States of America). Samples were resolved on a Bolt 4-12% SDS-PAGE gel (#NW00082, ThermoFisher Scientific, Waltham, Mass., United States of America) and transferred to PVDF membrane (#170-4274, Bio-Rad Laboratories, Hercules, Calif., United States of America). Antibodies were obtained from Cell Signaling Technology (Danvers, Mass., United States of America) unless indicated otherwise. Primary antibodies used were: Mcl-1 (#5453, RRID #AB 10694494), SF3B1 (#14434, RRID #AB 2798479), β-actin (#3700, RRID #AB_2242334) and AC (BD Biosciences #612302 (San Jose, California, United States of America), RRID #AB_399617). Secondary antibodies used were HRP-linked goat anti-mouse (#7076, RRID #AB_330924) or goat anti-rabbit IgG (#7074, RRID # AB_2099233). Clarity Max Western ECL Substrate (#1705062, Bio-Rad Laboratories, Hercules, Calif., United States of America) was added to visualize relative protein expression by chemiluminescence using the Bio-Rad ChemiDoc MP imaging system (Bio-Rad Laboratories, Hercules, Calif., United States of America). Quantification was done using Bio-Rad ImageLab 6.0.1 software (Bio-Rad Laboratories, Hercules, Calif., United States of America). For quantification, bands were normalized to β-actin as a loading control.

acid ceramidase (AC) = biological target: T1, acid ceramidase (AC) (Homo sapiens, UniProt Q13510); assay: Acid ceramidase activity assay (RBM14C12 fluorogenic substrate) in human AML cell lines; format: cell-based; settings: LCL204 5 or 10 μM vs SACLAC 1.25 or 2.5 μM; HL-60/VCR, THP-1, OCI-AML2
T1 construct: endogenous in cells; host or cells: HL-60/VCR, THP-1 and OCI-AML2 human AML cell lines
T1 sequence (Q13510 143-395 limits assumed): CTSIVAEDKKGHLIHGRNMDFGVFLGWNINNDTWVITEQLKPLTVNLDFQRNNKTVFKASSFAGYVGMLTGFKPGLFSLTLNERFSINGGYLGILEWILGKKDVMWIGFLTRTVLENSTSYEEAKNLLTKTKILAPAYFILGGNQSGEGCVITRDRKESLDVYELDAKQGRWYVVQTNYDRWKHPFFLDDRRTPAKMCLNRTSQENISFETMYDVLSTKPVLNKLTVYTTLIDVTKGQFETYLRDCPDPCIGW
T1 sequence (Q13510 22-142 limits assumed): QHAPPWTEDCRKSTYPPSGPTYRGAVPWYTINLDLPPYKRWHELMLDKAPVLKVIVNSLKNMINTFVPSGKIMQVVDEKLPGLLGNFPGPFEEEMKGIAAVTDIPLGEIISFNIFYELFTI
Description: Cells were seeded at 2×10^4 cells per well in 50 μl Acid ceramidase activity was measured at 24 hours using the RBM14C12 fluorogenic substrate as previously described (22,34).

hAML cell lines = assay: Venetoclax sensitivity of hAML cell lines; format: cell-based, human; settings: sensitive (MV4-11, MOLM-13, OCL-AML2) vs resistant (MM-6, THP-1, HL-60/VCR, OCI-AML3)
Description: Venetoclax sensitive cell lines can be co-treated with SACLAC (0.3 to 2.5 μM) and venetoclax (1 to 32 nM). […] Cell viability can be determined by MTS assay 24 hours after treatment. CompuSyn software (ComboSyn Inc., Paramus, N.J., United States of America) can be used to determine synergy. A combination index (CI) of >1, 1, and <1 indicates antagonism, additive effect, and synergism, respectively, with increasing synergism indicated by values approaching zero.

Q: `CN(C)CC[C@H](CSc1ccccc1)Nc1ccc(S(=O)(=O)NC(=O)c2ccc(N3CCN(Cc4ccccc4-c4ccc(Cl)cc4)CC3)cc2)cc1[N+](=O)[O-]` [ABT-737, 4-[4-[[2-(4-chlorophenyl)phenyl]methyl]piperazin-l-yl]-N-[4-[[(2R)-4-(dimethylamino)-1-phenylsulfanylbutan-2-yl]amino]-3-nitrophenyl]sulfonylbenzamide, reference compound] was tested. Which “Mcl-1 cleavage fragment (caspase-mediated)” value (OCI-AML2 cells; ABT-737 75 nM, 24 hours, abrogated by Z-VAD-FMK 50 μM) did it give?
A: smaller fragment of approximately 22 kDa

Q: With `CCCCCCCCCCCCC/C=C/[C@@H](O)[C@H](CO)NC(=O)CCCCCCCCCCCCCCC` [C16 ceramide, reference compound] as the molecule, how does the SF3B1 protein (OCI-AML2 cells; C16 ceramide 20 μM, 48 hours) read?
A: reduction

Q: What about the “ratio of Mcl-1S to Mcl-1L” value (OCI-AML2 cells; C16 ceramide 20 μM, 48 hours) of the same molecule?
A: increase

Q: How did the “dose required to achieve similar AC inhibition as SACLAC” value (acid ceramidase (AC)) turn out when `CCCCCCCCCCCCCCN[C@H](CO)[C@H](O)c1ccc([N+](=O)[O-])cc1` [LCL204, (1R, 2R)-2-N-(tetradecylamino)-1-(4′-nitrophenyl)-1,3-propandiol, reference compound] was run?
A: four-fold higher dose

Q: For `CO[C@]1(C)C[C@@]2(CO2)[C@H](O)[C@@H](/C=C/C(C)=C/C[C@@H]2O[C@H](C)[C@H](NC(=O)/C=C\[C@H](C)OC(C)=O)C[C@@H]2C)O1` [Spliceostatin A, reference compound], which Mcl-1S protein (OCI-AML2 cells; 5, 10 or 20 nM, 6 hours) is on record?
A: dose-dependent increase

Q: For `CC1(C)CCC(CN2CCN(c3ccc(C(=O)NS(=O)(=O)c4ccc(NCC5CCOCC5)c([N+](=O)[O-])c4)c(Oc4cnc5[nH]ccc5c4)c3)CC2)=C(c2ccc(Cl)cc2)C1` [Venetoclax], which “difference in sensitivity between venetoclax sensitive and resistant cell lines” value (hAML cell lines) is on record?
A: > 100 fold
